The values below come from PubChem BioAssay (NCI).

Among the test systems are MALME-3M melanoma; M14 melanoma; MDA-MB-435; K-562 leukemia; T-47D breast; SK-MEL-5 melanoma; NCI-H23 lung; NCI/ADR-RES ovarian; BT-549 breast; SN12C renal; OVCAR-3 ovarian; KM12 colon; HT29 colon; PC-3 prostate; SF-295 CNS; NCI-H226 lung; CAKI-1 renal; IGROV1 ovarian.
Assay in all cases: NCI anticancer screen, dose series, 48 h

SMILES strings stand for the structures.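 Where inhibition never reached the appropriate level, the endpoint shown equals the highest concentration tested. Otherwise, values were interpolated linearly from a five-concentration, 48-hour dose response in 96-well plates. At the TGI there is no net growth.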

Regarding `CC(C)C1CC(CO)(CNc2nc(N)nc(Cl)c2/C=N\O)C1` (stereo unspecified), the TGI was 16 µM with MALME-3M melanoma; 26.1 µM in the assay on M14 melanoma; 28.9 µM in the assay on MDA-MB-435; more than 100 µM with K-562 leukemia; 4.91 µM in the assay with T-47D breast; 2.82 µM with SK-MEL-5 melanoma. The TGI with NCI-H23 lung is 24.3 µM; with NCI/ADR-RES ovarian it was 27.5 µM; in the assay on BT-549 breast, 28.7 µM; in the assay with SN12C renal, more than 89.5 µM; with OVCAR-3 ovarian it was 36.9 µM; in the assay on KM12 colon it was 18.3 µM. For the same compound, the TGI in the assay on HT29 colon was 15.5 µM; in the assay on PC-3 prostate it was 26.5 µM; in the assay on SF-295 CNS, more than 68.2 µM; in the assay on NCI-H226 lung it was 51.2 µM; in the assay with CAKI-1 renal it was 33.7 µM; with IGROV1 ovarian it was 50.1 µM.

As to `CN1C(=O)N/C(=C\c2ccc(S(=O)(=O)N/N=C/c3ccccc3)cc2)C1=O`, the TGI in the assay on MALME-3M melanoma is more than 100 µM; in the assay on M14 melanoma, more than 100 µM; in the assay with MDA-MB-435 it was more than 100 µM; with K-562 leukemia, more than 100 µM; in the assay with T-47D breast it was more than 100 µM; with SK-MEL-5 melanoma, 27.7 µM. Besides, the TGI is more than 100 µM in the assay on NCI-H23 lung; more than 100 µM in the assay with NCI/ADR-RES ovarian; more than 100 µM in the assay on BT-549 breast; more than 100 µM with SN12C renal; more than 100 µM in the assay with OVCAR-3 ovarian; 82.1 µM in the assay on KM12 colon. In addition, the TGI with HT29 colon, in the assay with PC-3 prostate, in the assay on SF-295 CNS, with NCI-H226 lung, in the assay with CAKI-1 renal and in the assay with IGROV1 ovarian was more than 100 µM throughout.

For the compound `COC(=O)[C@H](C)NC(=O)C1(CNC(=O)[C@H](C)NC(=O)OC(C)(C)C)Cc2ccccc2-c2ccccc2C1`, the TGI with MALME-3M melanoma was 36.1 µM; in the assay on M14 melanoma it was more than 78.5 µM; in the assay with MDA-MB-435 it was 38.2 µM; in the assay on K-562 leukemia, 54 µM; in the assay with T-47D breast, more than 62 µM; with SK-MEL-5 melanoma, more than 55 µM. Moreover, the TGI in the assay with NCI-H23 lung was 37.8 µM; in the assay on NCI/ADR-RES ovarian, 41.4 µM; with BT-549 breast, more than 70.3 µM; with SN12C renal, 34.6 µM; in the assay on OVCAR-3 ovarian, 49.6 µM; with KM12 colon, 40.2 µM. The TGI in the assay on HT29 colon is 39.8 µM; in the assay with PC-3 prostate, more than 75.4 µM; with SF-295 CNS, 51.6 µM; with NCI-H226 lung, 61.5 µM; in the assay with CAKI-1 renal, more than 39.6 µM; with IGROV1 ovarian, 33.2 µM.

For the compound `OCC(O)C(O)C(O)C(O)CNCCO/N=C1/C(c2c(O)[nH]c3ccccc23)=Nc2ccccc21` (stereo unspecified), the TGI in the assay with MALME-3M melanoma is 27.7 µM; in the assay on M14 melanoma, more than 50 µM; in the assay on MDA-MB-435 it was 20.4 µM; in the assay with K-562 leukemia it was 44.4 µM; with T-47D breast it was 22.5 µM; with SK-MEL-5 melanoma it was 16.3 µM. Moreover, the TGI was 23.7 µM with NCI-H23 lung; more than 50 µM in the assay on NCI/ADR-RES ovarian; 41.7 µM in the assay on BT-549 breast; 46.4 µM in the assay on SN12C renal; 26.3 µM with OVCAR-3 ovarian; more than 50 µM in the assay on KM12 colon. Also, the TGI with HT29 colon is more than 50 µM; in the assay with PC-3 prostate, 30.8 µM; in the assay with SF-295 CNS, more than 50 µM; in the assay with NCI-H226 lung, more than 50 µM; in the assay on CAKI-1 renal, more than 50 µM; in the assay on IGROV1 ovarian, more than 50 µM.

Turning to `N#CC(NNC(=O)c1c(Cl)c(Cl)c(Cl)c(Cl)c1-c1nc2ccc(C(=O)c3ccccc3)cc2[nH]1)c1ccccc1` (stereo unspecified), the TGI in the assay with MALME-3M melanoma was more than 100 µM; in the assay with M14 melanoma, 31.1 µM; in the assay with MDA-MB-435 it was 15.3 µM; in the assay with K-562 leukemia, 19.3 µM; in the assay with T-47D breast, 98.8 µM; in the assay with SK-MEL-5 melanoma it was 13.3 µM. Also, the TGI with NCI-H23 lung was 90.3 µM; in the assay with NCI/ADR-RES ovarian, 32.2 µM; in the assay on BT-549 breast, more than 100 µM; in the assay with SN12C renal it was 31.1 µM; in the assay with OVCAR-3 ovarian it was 57 µM; in the assay on KM12 colon, more than 100 µM. In addition, the TGI in the assay on HT29 colon was more than 100 µM; in the assay on PC-3 prostate, more than 100 µM; in the assay with SF-295 CNS, 22.1 µM; in the assay with NCI-H226 lung, 28.3 µM; with CAKI-1 renal, more than 100 µM; in the assay on IGROV1 ovarian it was more than 100 µM.

Consider `CCCCCCCCCC(=O)NCCc1c[nH]c2ccc(OC)cc12`, for which the TGI is 34.3 µM in the assay with MALME-3M melanoma; 34 µM in the assay on M14 melanoma; 60.3 µM in the assay on MDA-MB-435; more than 100 µM with K-562 leukemia; 54 µM in the assay with T-47D breast; 34.3 µM in the assay with SK-MEL-5 melanoma. Also, the TGI in the assay on NCI-H23 lung was 31.6 µM; in the assay on NCI/ADR-RES ovarian, 38.4 µM; with BT-549 breast, 32.9 µM; with SN12C renal, 33.1 µM; with OVCAR-3 ovarian, 30.3 µM; in the assay on KM12 colon it was more than 100 µM. For the same compound, the TGI is more than 100 µM in the assay on HT29 colon; 28.9 µM in the assay on PC-3 prostate; 32 µM in the assay with SF-295 CNS; 42.1 µM in the assay on NCI-H226 lung; 65.6 µM in the assay with CAKI-1 renal; 30 µM in the assay with IGROV1 ovarian.

For the compound `O=C1C=CC(=O)c2c(O)c(NCCO)c(Cl)c(O)c21`, the TGI with MALME-3M melanoma was 2.71 µM; in the assay on M14 melanoma, 4.78 µM; in the assay on MDA-MB-435, 4.23 µM; in the assay on K-562 leukemia it was 8.23 µM; with T-47D breast, more than 7.77 µM; in the assay on SK-MEL-5 melanoma, 2.75 µM. Also, the TGI was 5.59 µM in the assay with NCI-H23 lung; more than 10 µM in the assay on NCI/ADR-RES ovarian; more than 5.74 µM in the assay with BT-549 breast; more than 5.55 µM in the assay with SN12C renal; 7.41 µM in the assay with OVCAR-3 ovarian; more than 10 µM with KM12 colon. In addition, the TGI is 7.43 µM with HT29 colon; more than 10 µM with PC-3 prostate; 4.81 µM in the assay with SF-295 CNS; more than 10 µM in the assay with NCI-H226 lung; more than 10 µM in the assay on CAKI-1 renal; 5.63 µM in the assay with IGROV1 ovarian.
